Data: patent publication US8785418B2, “Lyophilization cakes of proteasome inhibitors” (Cephalon, Inc., priority 2009, dated 2014)

Columns and labels:
[1] = Hydrolysis of Compound 10 in aqueous solution; assay type: physicochemical
Method: Mannitol (39.2 mg) and Kleptose® HP (hydroxypropyl-β-cyclodextrin; 49 mg) are dissolved in sterile water for injection (599 mg) at room temperature. Compound 10 (1.167 mg) is dispersed in tert-butanol (312 mg) by magnetic stirring protected from light at room temperature during 10 minutes. A few mL of the Mannitol/Kleptose® solution is poured into the Compound 10 dispersion in order to solubilize the Compound 10. After forming a solution, the remaining Mannitol/Kleptose® solution is added. The solution is stirred for a few minutes while protected from light. In Formulation 7, the pH is adjusted with phosphoric acid (2M) down to pH 4.0±0.2. In Formulation 8, the pH is about 8 and is not adjusted. The pre-lyophilization solution is filtered through a sterile disposable PVDF filter of 0.22 μm (Stericup Millipore®) to form a clear solution. 4 mL of the filtered pre-lyophilization solution is transferred into a 10 mL bottle and then freeze-dried.
Analysis of the pre-lyophilization solutions for Formulations 7 and 8 were performed at T0 and after 48 hours storage at 25° C. Compound 1 was analyzed because Compound 10 is known to convert to Compound 1 in aqueous solution.

[2] = tested on: RANKL-induced osteoclastoenesis; details: in vitro; cited from earlier work
[3] = Stability of Compound 1 drug substance; assay type: physicochemical
From the text: Piva, R. R., et al., Blood, 1 Mar. 2008, vol 111, No. 5, p 2765-2775. […] Id.
Compound 1 is currently undergoing clinical trials.

[4] = tested on: normal human epithelial cells, bone marrow progenitors, and bone marrow-derived stromal cells; details: cited from earlier work
angiogenesis = details: in vitro; cited from earlier work

Hydrolysis in aqueous solution ([1]; aqueous solution, converts to Compound 1) | Compound 10 remaining in obtained lyophilized cake ([1]; lyophilized cake of Formulations 7 and 8 (4 mL fill)) [mg] | Stability in solution ([3]; solution) | Molecule | RANKL-induced osteoclastoenesis [2] | Stability of the compound ([3]; exposure to air and/or light, some batches degrade at temperatures as low as 5° C.) | Cytotoxicity profile [4] | Anti-angiogenic activity (angiogenesis)
readily hydrolyzed | < 0.01 |  | 6-(2S,3R)-N-[(1R)-1-(1,3,6,2-dioxazaborocan-2-yl)-3-methylbutyl}-3-hydroxy-2-{(6-phenylpyridin-2-yl)formamido]butanamide [Compound 10] |  |  |  | 
 |  | unstable in solution | CC(C)C[C@H](NC(=O)[C@@H](NC(=O)c1cccc(-c2ccccc2)n1)[C@@H](C)O)B(O)O [Compound 1, [(1R)-1-[[(2S,3R)-3-Hydroxy-2-[[(6-phenylpyridin-2-yl)carbonyl]amino]-1-oxobutyl]amino]-3-methylbutyl]boronic acid] | represses | unstable and subject to degradation upon exposure to air and/or light | favorable cytotoxicity profile | strong anti-angiogenic activity
